Experimental data: patent publication US20170007561A1, “CONTEMPORANEOUS, HETEROGENEOUSLY-ORIENTED, MULTI-TARGETED THERAPEUTIC MODIFICATION AND/OR MODULATION OF DISEASE BY ADMINISTRATION OF SULFUR-CONTAINING, AMINO ACID-SPECIFIC SMALL MOLECULES” (BioNumerik Pharmaceuticals, Inc., priority 2014, published 2017)
“Also recorded” adds a separate entry of the source.

Columns and labels:
[1] = biological target: RNR subunit 1 (Homo sapiens, UniProt P23921); experiment: Whole protein Mass Spectroscopy of RNR1; type: binding
Text: RNR1 contains a total of sixteen (16) cysteine residues and at least five (5) of these cysteine residues are required for catalysis, including: Cys218, Cys429, Cys444, Cys787, and Cys790. It is hypothesized that the Tavocept-derived mesna adducts identified on the RNR1 protein using whole protein Mass Spectroscopy (see, FIG. 49) may alter or modulate RNR activity.

[2] = test system: bovine brain microtubule protein (α-/β-tubulin); experiment: Microtubule protein polymerization assay (OD350); type: biochemical
[3] = biological target: T1, Trx (E13K, D16K, E95K, E103K) (Homo sapiens, UniProt P10599, D16K/E103K/E13K/E95K); experiment: X-ray crystallography of Tavocept-derived mesna adduct on Trx; type: binding; conditions: Tavocept 40 mM
T1 construct: 6xHis with TEV site (N, cleaved yes); made in house; host or cells: E. coli BL21(DE3)
T1 sequence (P10599 1-105 E13K/D16K/E95K/E103K): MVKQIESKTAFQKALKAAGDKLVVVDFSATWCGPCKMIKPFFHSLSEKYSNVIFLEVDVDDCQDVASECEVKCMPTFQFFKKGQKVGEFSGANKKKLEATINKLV
Method: Adduct was prepared as described above with some modifications designed to increase the likelihood of success in crystallization of the protein. […] This reaction was incubated for 1 hour at 30° C. followed by overnight incubation at 4° C. […] Aliquots of this solution were analyzed by ESI LC-MS to confirm the presence of adduct(s) prior to initiation of crystallization experiments.
These initial broad screens produced crystals under a wide range of conditions (data not shown) and the screens used included: (i) PEGION, CRYSTALS HT, and PEGRX (Hampton Research) and (ii) JCSG and BASIC (JENA Biosciences). Multiple rounds of optimization were completed and included fine screens, varying the protein concentration and varying the protein to reservoir ratios to obtain diffraction quality crystals. In the Trx pH 9.0/8.5 structure (adduct formed at pH 9.0, crystals grown at pH 8.5), the best crystals were obtained in 20% ethanol, 0.1 M Tris (at 60 mg/mL Trx protein) and diffracted to 2.5 Å (C2 space group). In Trx pH 9.0/7.0 (adduct formed at pH 9.0, crystals grown at pH 7.0), the best crystals were obtained in 20% PEG3350, 0.2 M KCl (60 mg/mL Trx protein) and diffracted to 2.8 Å (C2 space group). In Trx pH 7.0/7.0 (adduct formed at pH 7.0, crystals grown at pH 7.0), the best crystals were obtained in 28% PEG3350, 0.2M KCl (160 mg/mL Trx protein) and diffracted to 1.85 Å resolution (P21 space group).
The solution obtained was consistent with four molecules in the crystal asymmetric unit. […] Molecules C and D were substantially rebuilt and the Tavocept-derived mesna adduct added after protein rebuilding was complete. The structure solution was supported by contiguous electron density for the entire chain trace of each molecule, landmark side chain density features matching the amino acid sequence including cysteines, absence of phi-psi violations, and final R/Rfree values in the normal range. […] For the Trx pH 9.0/8.5 structure, residual density observed near Cys69 of molecule A was modeled as a Tavocept-derived mesna adduct in a dual conformation. […]

[4] = test system: Stage IV primary adenocarcinoma of the lung; experiment: Tavocept Phase III Clinical Trial (interim analysis); type: in vivo, human
Text: In the Tavocept Phase III Clinical Trial pre-specification was made through stratification factors including sex (i.e., male versus female) and taxane treatment (i.e., paclitaxel versus docetaxel). Eligible patients had not received prior drug treatment for their cancer, and inclusion in the trial was also allowed for patients who had relapsed following surgery for earlier stage disease as well as patients with central nervous system metastasis. A total of 540 patients were enrolled on the trial.
The primary endpoint of this study was overall survival (OS); defined as the time period from the date of patient randomization to the date of death due to any cause.
Patient eligibility was determined by compliance with protocol-specified inclusion and exclusion criteria.
All patients received standard combination chemotherapy (taxane agent plus cisplatin) and either Tavocept or placebo.
Treatment was administered every 3 weeks for a maximum of 6 cycles (one treatment cycle=21 days).
The primary endpoint for analysis was the duration of overall survival, defined as the time from the date of randomization to the date of death due to any cause. The number of mortality events used for the final analysis depended upon the number of patients enrolled into the study (provided the sample size was adjusted at the interim analysis). For the primary analysis, the expected number of total mortality events was approximately 416 mortality events for a sample size of 575 patients.
The one-sided log-rank test was performed in order to allow the application of the adaptive methodology. Details of this 2-stage adaptive design are described below. Kaplan-Meier survival curves (including identification of censored observations) was presented by treatment group, as well as median survival times and their 95% confidence intervals.
The following specific endpoints were evaluated with pre-specified analyses in order to evaluate for potential clinically and statistically significant differences between Tavocept- and placebo-treated patients.
The incidence of cisplatin renal toxicity and anemia, and the impact of emesis on daily life were analyzed using the Cochran-Mantel-Haenszel (CMH) tests for proportions. The CMH test was applied in the comparison between Tavocept and placebo where adjustment for prognostic factors is clinically important (e.g., adjusting for baseline characteristics). To control for Type I error due to multiple comparisons of safety data, a nominal, 2-sided p-value of less than 0.0125 was used for each comparison of renal toxicity, anemia, and emesis.

[5] = biological target: T2, Peroxiredoxin (Prx) (Homo sapiens, UniProt Q06830); experiment: Peroxiredoxin activity (summary Table 27); type: biochemical
T2 construct: purchased SigmaAldrich
T2 sequence (Q06830 whole entry): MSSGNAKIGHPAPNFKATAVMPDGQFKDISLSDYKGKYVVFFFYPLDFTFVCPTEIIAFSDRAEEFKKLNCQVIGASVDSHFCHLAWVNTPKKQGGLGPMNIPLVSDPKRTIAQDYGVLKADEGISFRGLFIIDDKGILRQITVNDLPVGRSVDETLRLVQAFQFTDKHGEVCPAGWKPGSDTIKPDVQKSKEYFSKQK

RNR subunit 1, sequence (P23921 whole entry): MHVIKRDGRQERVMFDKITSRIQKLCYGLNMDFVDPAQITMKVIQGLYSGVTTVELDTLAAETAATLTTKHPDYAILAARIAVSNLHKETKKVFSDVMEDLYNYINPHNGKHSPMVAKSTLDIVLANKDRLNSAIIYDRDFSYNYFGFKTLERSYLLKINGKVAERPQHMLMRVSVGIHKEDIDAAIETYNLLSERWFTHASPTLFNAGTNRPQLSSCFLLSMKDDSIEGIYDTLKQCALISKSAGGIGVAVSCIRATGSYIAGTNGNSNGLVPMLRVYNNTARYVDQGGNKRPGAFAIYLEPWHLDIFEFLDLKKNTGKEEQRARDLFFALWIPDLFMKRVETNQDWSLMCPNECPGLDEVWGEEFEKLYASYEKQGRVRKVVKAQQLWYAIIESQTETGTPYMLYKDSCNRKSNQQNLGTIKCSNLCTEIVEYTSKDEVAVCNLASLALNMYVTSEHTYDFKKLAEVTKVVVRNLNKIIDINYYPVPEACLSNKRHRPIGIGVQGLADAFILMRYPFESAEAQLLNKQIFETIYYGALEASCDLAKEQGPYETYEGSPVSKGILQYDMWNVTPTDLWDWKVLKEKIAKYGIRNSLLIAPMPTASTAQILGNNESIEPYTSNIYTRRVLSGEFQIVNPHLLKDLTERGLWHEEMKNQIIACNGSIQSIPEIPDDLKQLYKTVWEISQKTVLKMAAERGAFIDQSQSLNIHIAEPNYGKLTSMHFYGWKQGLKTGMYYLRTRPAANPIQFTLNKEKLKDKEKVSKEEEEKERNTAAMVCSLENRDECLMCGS

## O=S(=O)([O-])CCSSCCS(=O)(=O)[O-].[Na+].[Na+] [Tavocept, disodium 2,2′-dithio-bis-ethane sulfonate]
[1]
  number of Tavocept-derived mesna adducts on cysteine residues within RNR1: ≤ 8
[2]; 12 mM Tavocept, qualitative
  inhibition of paclitaxel promoted microtubule protein polymerization: approximately 50%
[2]; Tavocept 1, 4, 8, 12 and 16 mM, paclitaxel 10 μM
  effect on paclitaxel-promoted microtubule protein hyperpolymerization: inhibit paclitaxel-promoted microtubule protein hyperpolymerization in a dose-dependent manner; also recorded: normalizes
[2]; Tavocept 4, 6, 8, and 10 mM preincubated with microtubule protein on ice for 20 minutes
  effect on GTP-catalyzed polymerization of microtubule protein: dose-dependent inhibitory effect; also recorded: inhibit GTP-catalyzed polymerization; also recorded: modulate tubulin polymerization in a concentration dependent manner
[2]; Tavocept 6, 8, 10 and 12 mM
  effect on paclitaxel/GTP/MgCl2-catalyzed microtubule protein hyperpolymerization: inhibit paclitaxel/GTP/MgCl2-catalyzed microtubule protein hyperpolymerization in a dose dependent manner
[2]; paclitaxel 10 μM
  Tavocept concentration at which final polymerization with paclitaxel was essentially equal to GTP control: ≥ 6 mM
  Tavocept concentrations that reproducibly inhibit paclitaxel promoted hyperpolymerization: > 1 mM
[2]; paclitaxel/GTP/MgCl2 10 μM/1 mM/1 mM
  Tavocept concentrations giving net polymerization equivalent to GTP/MgCl2 only control: 6 to 8 mM
[3]; Trx pH 7.0/7.0 structure
  Mesna adduct site on Trx by X-ray: clearly visible on Cys69 in both molecules A and B
[3]; Trx pH 9.0/7.0 structure
  Mesna adduct site on Trx by X-ray: clearly visible on both Cys69 and Cys62 in both molecules A and B
[3]; Trx pH 9.0/8.5 structure
  Mesna adduct site on Trx by X-ray: clearly visible on Cys69 in both molecules A and B
[4]; Male & Female Non-Smokers receiving paclitaxel and cisplatin
  Median survival advantage versus placebo: 12 months
[4]; PS 1 ECOG Performance Status males and females receiving paclitaxel and cisplatin
  Median survival advantage versus placebo: 4.0 months
[4]; all subjects, paclitaxel or docetaxel plus cisplatin
  Overall median survival advantage versus placebo: greater than 2 month
[4]; compared to placebo
  Protection against chemotherapy-induced kidney toxicity: improvement in the relative creatine decrease from baseline in favor of Tavocept
[4]; compared to placebo arm
  Anemia: reduced anemia
[4]; during administration of up to 6 cycles, relative to Placebo arm
  Kaplan Meier overall survival curve slope: flattening of the slope of the survival curve for the Tavocept arm
[4]; female subjects greater than or equal to 65 years of age receiving paclitaxel and cisplatin
  Median survival advantage versus placebo: 2.1 months
[4]; female subjects with CNS Metastases present, paclitaxel plus cisplatin
  Survival advantage: Survival advantage in favor of Tavocept
[4]; male and female subjects greater than or equal to 65 years of age receiving paclitaxel and cisplatin
  Median survival advantage versus placebo: 3.5 months
[4]; patients previously receiving Tavocept, paclitaxel and cisplatin
  Median period of additional survival after starting new chemotherapy, longer than placebo-treated patients: 3.4 months
[4]; subjects greater than or equal to 65 years of age
  Median survival advantage versus placebo: 3 months
[5]
  Cellular consequence of BNP7787-modification and/or modulation: Prx: BNP7787 disrupts active site structure (Prx) resulting in impaired
